{"source": "paper PMC8634693", "about": "(European Journal of Medicinal Chemistry, 2021)", "key": {"[1]": {"target": "T1, SARS-CoV-2 3CL^pro (Severe acute respiratory syndrome coronavirus 2, UniProt P0DTD1)", "assay_type": "biochemical"}, "[2]": {"assay": "Plasma stability in human plasma", "assay_type": "in vitro ADME", "settings": "37 °C, up to 12 h"}, "[3]": {"target": "T1, SARS-CoV-2 3CL^pro", "assay_type": "biochemical", "remark": "listed apart in the source"}, "[4]": {"assay": "Phase II metabolic stability", "settings": "human liver microsomes, in the presence of UDPGA"}, "[5]": {"assay": "Gastrointestinal stability in simulated gastric fluid", "assay_type": "in vitro ADME", "settings": "20 μM, 37 °C, in 90 min"}, "[6]": {"test_system": "major CYPs in HLMs"}, "[7]": {"assay": "Phase I metabolic stability in human liver microsomes"}}, "note": "“Also recorded” adds a separate entry of the source."}
{"smiles": "CC(=O)OCC1Cc2c(-c3ccc(Cl)cn3)cccc2-c2c(O)ccc(C)c21", "note": "(stereo not shown) [Compound A19]", "values": [{"measurement": "inhibitory activity against SARS-CoV-2 3CLpro, in words", "setting": "[1]", "value": "increased inhibitory activities"}]}
{"smiles": "CC(=O)OCC1Cc2c(-c3ccc4ccccc4n3)cccc2-c2c(O)ccc(C)c21", "note": "(stereo not shown) [Compound A23]", "values": [{"measurement": "inhibitory activity against SARS-CoV-2 3CLpro, in words", "setting": "[1]", "value": "increased inhibitory activities"}]}
{"smiles": "OCC1Cc2c(-c3ccc(F)cn3)cccc2-c2c(O)ccc(-c3ccc(Br)cc3)c21", "note": "(stereo not shown) [Compound C4, 1-(4-bromophenyl)-8-(5-fluoropyridin-2-yl)-10-(hydroxymethyl)-9,10-dihydrophenanthren-4-ol]", "values": [{"measurement": "inhibitory activity against SARS-CoV-2 3CLpro, in words", "setting": "[1]", "value": "slight decreases in the inhibitory activity"}]}
{"smiles": "CC(=O)OCC1Cc2c(cccc2-n2cccn2)-c2c(O)ccc(C)c21", "note": "(stereo not shown) [Compound A26]", "values": [{"measurement": "inhibitory activity against SARS-CoV-2 3CLpro, in words", "setting": "[1]", "value": "no inhibitory activity"}]}
{"smiles": "CC(=O)OCC1Cc2c(-c3ccc(F)cn3)cccc2-c2c(O)ccc(C)c21", "note": "(stereo not shown) [Compound A18]", "values": [{"measurement": "inhibitory activity against SARS-CoV-2 3CLpro, in words", "setting": "[1]", "value": "comparable inhibitory activities with A1"}]}
{"smiles": "CC(=O)OCC1Cc2c(-c3ccc(Br)cn3)cccc2-c2c(O)ccc(C)c21", "note": "(stereo not shown) [Compound A20]", "values": [{"measurement": "inhibitory activity against SARS-CoV-2 3CLpro, in words", "setting": "[1]", "value": "increased inhibitory activities"}]}
{"smiles": "CC(=O)OCC1Cc2c(-c3cc(C)ccn3)cccc2-c2c(O)ccc(C)c21", "note": "(stereo not shown) [Compound A16]", "values": [{"measurement": "inhibitory activity against SARS-CoV-2 3CLpro, in words", "setting": "[1]", "value": "comparable inhibitory activities with A1"}]}
{"smiles": "CC(=O)OCC1Cc2c(-c3ccccn3)ccc(F)c2-c2c(O)ccc(C)c21", "note": "(stereo not shown) [Compound A10]", "values": [{"measurement": "inhibitory activity against SARS-CoV-2 3CLpro, in words", "setting": "[1]", "value": "significant loss of potency"}]}
{"smiles": "CC(=O)OCC1Cc2c(cccc2-c2ncnc3c2ncn3CC2CC2)-c2c(O)ccc(C)c21", "note": "(stereo not shown) [Compound A27]", "values": [{"measurement": "inhibitory activity against SARS-CoV-2 3CLpro, in words", "setting": "[1]", "value": "no inhibitory activity"}]}
{"smiles": "CC(=O)OCC1Cc2c(-c3ccccn3)ccc(C)c2-c2c(O)ccc(C)c21", "note": "(stereo not shown) [Compound A8]", "values": [{"measurement": "inhibitory activity against SARS-CoV-2 3CLpro, in words", "setting": "[1]", "value": "significant loss of potency"}]}
{"smiles": "CC(=O)OCC1Cc2c(-c3ncccc3C)cccc2-c2c(O)ccc(C)c21", "note": "(stereo not shown) [Compound A15]", "values": [{"measurement": "inhibitory activity against SARS-CoV-2 3CLpro, in words", "setting": "[1]", "value": "comparable inhibitory activities with A1"}]}
{"smiles": "OCC1Cc2c(-c3cc(-c4ccccc4)ccn3)cccc2-c2c(O)ccc(-c3ccc(Br)cc3)c21", "note": "(stereo not shown) [Compound C1, 1-(4-bromophenyl)-10-(hydroxymethyl)-8-(4-phenylpyridin-2-yl)-9,10-dihydrophenanthren-4-ol]", "values": [{"measurement": "plasma stability, in words", "setting": "[2]", "value": "prominent; also recorded: excellent plasma stability"}, {"measurement": "Inhibition mode", "setting": "[3]", "value": "Mixed"}, {"measurement": "inhibition manner", "setting": "[3]", "value": "mixed-inhibition"}, {"measurement": "metabolism by human hepatic UDP-glucuronosyltransferases (hUGTs), in words", "setting": "[4]", "value": "hardly metabolized"}, {"measurement": "gastrointestinal stability in SGF and SIF", "setting": "[5]", "value": "good gastrointestinal stabilities"}, {"measurement": "inhibitory effects against CYPs", "setting": "[6]", "value": "moderate inhibitory effects"}, {"measurement": "metabolism by human cytochrome P450 enzymes (hCYPs), in words", "setting": "[7]", "value": "hardly metabolized"}]}
{"smiles": "CC(=O)OCC1Cc2c(cccc2-c2nccc3ccccc23)-c2c(O)ccc(C)c21", "note": "(stereo not shown) [Compound A21]", "values": [{"measurement": "inhibitory activity against SARS-CoV-2 3CLpro, in words", "setting": "[1]", "value": "increased inhibitory activities"}]}
{"smiles": "O=Cc1ccnc(-c2cccc3c2CC(CO)c2c(-c4ccc(Br)cc4)ccc(O)c2-3)c1", "note": "(stereo not shown) [Compound C2, 2-(8-(4-bromophenyl)-5-hydroxy-9-(hydroxymethyl)-9,10-dihydrophenanthren-1-yl)isonicotinaldehyde]", "values": [{"measurement": "Inhibition mode", "setting": "[3]", "value": "Mixed"}, {"measurement": "inhibition manner", "setting": "[3]", "value": "mixed-inhibition"}, {"measurement": "metabolism by human hepatic UDP-glucuronosyltransferases (hUGTs), in words", "setting": "[4]", "value": "moderately metabolized"}, {"measurement": "gastrointestinal stability in SGF and SIF", "setting": "[5]", "value": "good gastrointestinal stabilities"}, {"measurement": "metabolism by human cytochrome P450 enzymes (hCYPs), in words", "setting": "[7]", "value": "readily metabolized"}]}
{"smiles": "CC(=O)OCC1Cc2c(-c3cc4ccccc4cn3)cccc2-c2c(O)ccc(C)c21", "note": "(stereo not shown) [Compound A22]", "values": [{"measurement": "inhibitory activity against SARS-CoV-2 3CLpro, in words", "setting": "[1]", "value": "increased inhibitory activities"}]}
{"smiles": "CC(=O)OCC1Cc2c(-c3ccccn3)ccc(Br)c2-c2c(O)ccc(C)c21", "note": "(stereo not shown) [Compound A12]", "values": [{"measurement": "inhibitory activity against SARS-CoV-2 3CLpro, in words", "setting": "[1]", "value": "significant loss of potency"}]}
{"smiles": "CC(=O)OCC1Cc2c(-c3ccncn3)cccc2-c2c(O)ccc(C)c21", "note": "(stereo not shown) [Compound A25]", "values": [{"measurement": "inhibitory activity against SARS-CoV-2 3CLpro, in words", "setting": "[1]", "value": "no inhibitory activity"}]}
{"smiles": "C=CCn1cnc2c(-c3cccc4c3CC(COC(C)=O)c3c(C)ccc(O)c3-4)ncnc21", "note": "(stereo not shown) [Compound A28]", "values": [{"measurement": "inhibitory activity against SARS-CoV-2 3CLpro, in words", "setting": "[1]", "value": "no inhibitory activity"}]}
{"smiles": "OCC1Cc2c(-c3ccc(Cl)cn3)cccc2-c2c(O)ccc(-c3ccc(Br)cc3)c21", "note": "(stereo not shown) [Compound C5, 1-(4-bromophenyl)-8-(5-chloropyridin-2-yl)-10-(hydroxymethyl)-9,10-dihydrophenanthren-4-ol]", "values": [{"measurement": "inhibitory activity against SARS-CoV-2 3CLpro, in words", "setting": "[1]", "value": "slight decreases in the inhibitory activity"}]}
{"smiles": "CC(=O)OCC1Cc2c(-c3ncccn3)cccc2-c2c(O)ccc(C)c21", "note": "(stereo not shown) [Compound A24]", "values": [{"measurement": "inhibitory activity against SARS-CoV-2 3CLpro, in words", "setting": "[1]", "value": "no inhibitory activity"}]}
{"smiles": "COc1ccc(-c2ccccn2)c2c1-c1c(O)ccc(C)c1C(COC(C)=O)C2", "note": "(stereo not shown) [Compound A9]", "values": [{"measurement": "inhibitory activity against SARS-CoV-2 3CLpro, in words", "setting": "[1]", "value": "significant loss of potency"}]}
